The target of the test is human GluN1/GluN2B NMDA receptors (Homo sapiens, UniProt Q05586+Q13224). The test can be described thus: Cell-based calcium flux (FLIPR) assay on cloned human GluN1/GluN2B ion channels expressed in mammalian cells. Conditions: standard assay; glutamate ~EC40, 10 μM glycine; stable Tet-On cell line. The essentials: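 Tet-On-induced stable cells expressing human GluN1/GluN2B, Calcium 5 dye. Compounds preincubated 5 min (agonist check), then glutamate at ~EC40 plus 10 μM glycine added for 5 min; Mg2+ and buffer composition differ between standard and HTS formats. FLIPR Tetra fluorescence normalised to control wells; (+)MK-801 as antagonist control.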
human GluN1/GluN2B NMDA receptors, sequence (Q13224 27-1484, other chains not shown): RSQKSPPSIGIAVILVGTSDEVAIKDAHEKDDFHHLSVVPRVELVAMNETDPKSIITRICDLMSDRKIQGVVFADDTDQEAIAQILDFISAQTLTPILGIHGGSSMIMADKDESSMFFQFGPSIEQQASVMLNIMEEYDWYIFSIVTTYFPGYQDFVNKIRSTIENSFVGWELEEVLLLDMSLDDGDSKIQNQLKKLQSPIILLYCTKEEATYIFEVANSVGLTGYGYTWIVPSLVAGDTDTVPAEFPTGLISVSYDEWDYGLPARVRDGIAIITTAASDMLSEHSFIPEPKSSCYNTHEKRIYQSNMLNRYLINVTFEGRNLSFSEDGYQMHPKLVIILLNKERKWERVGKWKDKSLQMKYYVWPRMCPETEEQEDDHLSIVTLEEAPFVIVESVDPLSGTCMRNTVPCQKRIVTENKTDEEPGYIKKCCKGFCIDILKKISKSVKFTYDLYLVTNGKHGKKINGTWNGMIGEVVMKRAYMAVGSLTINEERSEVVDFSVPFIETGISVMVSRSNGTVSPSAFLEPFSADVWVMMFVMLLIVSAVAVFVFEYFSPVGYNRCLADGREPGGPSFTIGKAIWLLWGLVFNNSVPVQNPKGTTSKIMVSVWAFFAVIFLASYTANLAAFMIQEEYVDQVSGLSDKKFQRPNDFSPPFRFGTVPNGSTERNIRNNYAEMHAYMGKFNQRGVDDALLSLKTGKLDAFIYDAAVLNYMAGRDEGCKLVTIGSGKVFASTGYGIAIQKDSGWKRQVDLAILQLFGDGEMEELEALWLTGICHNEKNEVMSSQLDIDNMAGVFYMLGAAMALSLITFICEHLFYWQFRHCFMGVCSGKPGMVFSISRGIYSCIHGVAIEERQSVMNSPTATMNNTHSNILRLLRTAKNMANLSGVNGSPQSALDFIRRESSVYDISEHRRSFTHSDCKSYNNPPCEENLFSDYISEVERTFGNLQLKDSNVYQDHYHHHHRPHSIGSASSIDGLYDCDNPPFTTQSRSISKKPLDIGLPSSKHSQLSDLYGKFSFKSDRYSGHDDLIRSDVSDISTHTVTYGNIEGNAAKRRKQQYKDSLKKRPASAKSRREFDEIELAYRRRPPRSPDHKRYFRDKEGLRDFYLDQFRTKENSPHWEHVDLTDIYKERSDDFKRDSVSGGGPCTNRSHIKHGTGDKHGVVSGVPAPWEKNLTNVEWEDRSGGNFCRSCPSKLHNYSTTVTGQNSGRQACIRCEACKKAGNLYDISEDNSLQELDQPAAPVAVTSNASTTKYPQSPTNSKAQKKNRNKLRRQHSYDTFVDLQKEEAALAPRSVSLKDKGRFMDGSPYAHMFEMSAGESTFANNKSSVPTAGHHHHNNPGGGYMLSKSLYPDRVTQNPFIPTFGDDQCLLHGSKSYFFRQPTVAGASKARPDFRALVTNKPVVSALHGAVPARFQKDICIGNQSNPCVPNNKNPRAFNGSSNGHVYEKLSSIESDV
Background: Calcium assays in cells follow changes in intracellular calcium, usually with a dye or a luminescent sensor.

Usually IC50 stands for the concentration at which inhibition is half-maximal.

Consider `COc1ncc(-c2ccc(F)c(C(C)(F)F)c2)cc1CN1CCOC1=O` [Example 110, 3-[[5-[3-(1,1-Difluoroethyl)-4-fluoro-phenyl]-2-methoxy-3-pyridyl]methyl]oxazolidin-2-one], for which the IC50 is 37 nM.

Consider `COc1ncc(-c2ccc(F)c(C)c2F)cc1CN1CCOC1=O` [Example 103, 3-[[5-(2,4-Difluoro-3-methyl-phenyl)-2-methoxy-3-pyridyl]methyl] oxazolidin-2-one], for which the IC50 came to 46 nM.

Take `C[C@@H]1CN(Cc2cncc(-c3ccc(F)c(C(F)F)c3)c2)C(=O)O1` (single isomer, unassigned) [Example 28, (R*)-3-[[5-[3-(Difluoromethyl)-4-fluoro-phenyl]-3-pyridyl]methyl]-5-methyl-oxazolidin-2-one]: the IC50 turned out to be 14 nM.

With `CC(C)C1CN(Cc2cncc(-c3ccc(F)c(OC(F)F)c3)c2)C(=O)O1` (single isomer, unassigned) [Example 15, (R*)-3-[[5-[3-(Difluoromethoxy)-4-fluoro-phenyl]-3-pyridyl]methyl]-5-isopropyl-oxazolidin-2-one], the IC50 turned out to be 45 nM.

With `COc1ncc(-c2cccc(C(F)(F)F)c2)cc1CN1CCOC1=O` [Example 101, 3-[[2-Methoxy-5-[3-(trifluoromethyl)phenyl]-3-pyridyl]methyl]oxazolidin-2-one], the IC50 came to 53 nM.

On to `O=C1OC2(CC2)CN1Cc1cncc(-c2ccc(F)c(OC(F)F)c2)c1` [Example 9, 5-[[5-[3-(Difluoromethoxy)-4-fluoro-phenyl]-3-pyridyl]methyl]-7-oxa-5-azaspiro[2.4]heptan-6-one], for which the IC50 was found to be 12 nM.

`Cc1ncc(-c2ccc(F)c(OC(F)F)c2)cc1CN1CCOC1=O` [Example 79, 3-[[5-[3-(Difluoromethoxy)-4-fluoro-phenyl]-2-methyl-3-pyridyl]methyl] oxazolidin-2-one]: the IC50 turned out to be 10 nM.

In the case of `Cc1ncc(-c2ccc(Cl)c(OC(F)F)c2)cc1CN1CCOC1=O` [Example 89, 3-[[5-[4-Chloro-3-(difluoromethoxy)phenyl]-2-methyl-3-pyridyl]methyl]oxazolidin-2-one], the IC50 is 14 nM.

As to `CC1CN(Cc2cncc(-c3ccc(F)c(C(F)F)c3)c2)C(=O)O1` (racemic) [Example 26, (R/S)-3-[[5-[3-(Difluoromethyl)-4-fluoro-phenyl]-3-pyridyl]methyl]-5-methyl-oxazolidin-2-one], the 50% inhibitory concentration (IC50) stood at 28 nM.

As for `Cc1ncc(-c2ccc(F)c(C(F)F)c2)cc1CN1CC2(CC2)OC1=O` [Example 96, 5-[[5-[3-(Difluoromethyl)-4-fluoro-phenyl]-2-methyl-3-pyridyl]methyl]-7-oxa-5-azaspiro[2.4]heptan-6-one], the IC50 worked out at 31 nM.

For `Cc1ncc(-c2ccc(F)c(C(F)F)c2)cc1CN1C[C@@H](C)OC1=O` [Example 92, (5R)-3-[[5-[3-(Difluoromethyl)-4-fluoro-phenyl]-2-methyl-3-pyridyl]methyl]-5-methyl-oxazolidin-2-one], the IC50 came out at 63 nM.

Turning to `C[C@@H]1COC(=O)N1Cc1cc(-c2ccc(F)c(C(F)F)c2)cnc1C(C)(F)F` [Example 143, (4R)-3-[[2-(1,1-Difluoroethyl)-5-[3-(difluoromethyl)-4-fluoro-phenyl]-3-pyridyl]methyl]-4-methyl-oxazolidin-2-one], the IC50 was found to be 180 nM.

In the case of `Cc1c(F)ccc(-c2cncc(CN3CCOC3=O)c2)c1F` [Example 45, 3-[[5-(2,4-Difluoro-3-methyl-phenyl)-3-pyridyl]methyl]oxazolidin-2-one], the IC50 was 9 nM.

As to `Cc1ncc(-c2ccc(F)c(C(F)F)c2)cc1CN1CC(C)OC1=O` (racemic) [Example 94, (R/S)-3-[[5-[3-(Difluoromethyl)-4-fluoro-phenyl]-2-methyl-3-pyridyl]methyl]-5-methyl-oxazolidin-2-one], the IC50 came to 21 nM.

As for `O=C1OC(CN2CCOCC2)CN1Cc1cncc(-c2ccc(F)c(OC(F)F)c2)c1` (single isomer, unassigned) [Example 18, (R*)-3-[[5-[3-(Difluoromethoxy)-4-fluoro-phenyl]-3-pyridyl]methyl]-5-(morpholinomethyl)oxazolidin-2-one], the IC50 was 751 nM.

As for `Cc1cc(-c2cnc(C)c(CN3CCOC3=O)c2)ccc1F` [Example 76, 3-[[5-(4-Fluoro-3-methyl-phenyl)-2-methyl-3-pyridyl]methyl]oxazolidin-2-one], the IC50 is 19 nM.

Regarding `CC1COC(=O)N1Cc1cncc(-c2ccc(F)c(OC(F)F)c2)c1` (racemic) [Example 5, (R/S)-3-[[5-[3-(Difluoromethoxy)-4-fluoro-phenyl]-3-pyridyl]methyl]-4-methyl-oxazolidin-2-one], the half-maximal inhibitory concentration (IC50) stood at 20 nM.

As for `CC(C)[C@H]1COC(=O)N1Cc1cncc(-c2ccc(F)c(C(F)F)c2)c1` [Example 23, (4S)-3-[[5-[3-(Difluoromethyl)-4-fluoro-phenyl]-3-pyridyl]methyl]-4-isopropyl-oxazolidin-2-one], the IC50 amounted to 2600 nM.

`O=C1OC2(CC2)CN1Cc1cncc(-c2ccc(F)c(C(F)F)c2)c1` [Example 29, 5-[[5-[3-(Difluoromethyl)-4-fluoro-phenyl]-3-pyridyl]methyl]-7-oxa-5-azaspiro[2.4]heptan-6-one]: the IC50 came to 12 nM.

Regarding `Cc1ncc(-c2cccc(Cl)c2)cc1CN1CCCOC1=O` [Example 64, 3-[[5-(3-Chlorophenyl)-2-methyl-3-pyridyl]methyl]-1,3-oxazinan-2-one], the half-inhibitory concentration (IC50) turned out to be 406 nM.

For the compound `COc1ncc(-c2ccc(F)c(OC(F)F)c2)cc1CN1C(=O)OC[C@H]1C` [Example 118, (4R)-3-[[5-[3-(Difluoromethoxy)-4-fluoro-phenyl]-2-methoxy-3-pyridyl]methyl]-4-methyl-oxazolidin-2-one], the IC50 came to 26 nM.

For `Cc1ncc(-c2ccc(F)c(C(F)(F)F)c2)cc1CN1CCCOC1=O` [Example 75, 3-[[5-[4-Fluoro-3-(trifluoromethyl)phenyl]-2-methyl-3-pyridyl]methyl]-1,3-oxazinan-2-one], the IC50 was 39 nM.

For `Cc1ncc(-c2cccc(F)c2)cc1CN1CCCOC1=O` [Example 69, 3-[[5-(3-Fluorophenyl)-2-methyl-3-pyridyl]methyl]-1,3-oxazinan-2-one], the IC50 is 3020 nM.

Take `[2H]C([2H])(c1cc(-c2ccc(F)c(C(F)F)c2)cnc1C)N1CCCOC1=O` [Example 58, 3-[Dideuterio-[5-[3-(difluoromethyl)-4-fluoro-phenyl]-2-methyl-3-pyridyl]methyl]-1,3-oxazinan-2-one]: the IC50 was determined as 25 nM.

As for `Cc1ncc(-c2ccc(F)c(F)c2)cc1CN1CCCOC1=O` [Example 67, 3-[[5-(3,4-Difluorophenyl)-2-methyl-3-pyridyl]methyl]-1,3-oxazinan-2-one], the IC50 turned out to be 344 nM.

Take `Cc1ncc(-c2ccc(F)cc2F)cc1CN1CCCOC1=O` [Example 72, 3-[[5-(2,4-Difluorophenyl)-2-methyl-3-pyridyl]methyl]-1,3-oxazinan-2-one]: the IC50 was 2240 nM.

Turning to `O=C1OC(CN2CCOCC2)CN1Cc1cncc(-c2ccc(F)c(C(F)F)c2)c1` (single isomer, unassigned) [Example 40, (R*)-3-[[5-[3-(Difluoromethyl)-4-fluoro-phenyl]-3-pyridyl]methyl]-5-(morpholinomethyl)oxazolidin-2-one], the IC50 was 205 nM.

In the case of `Cc1ncc(-c2ccc(F)c(C(C)(F)F)c2)cc1CN1CCOC1=O` [Example 78, 3-[[5-[3-(1,1-Difluoroethyl)-4-fluoro-phenyl]-2-methyl-3-pyridyl]methyl]oxazolidin-2-one], the IC50 came to 32 nM.

Consider `C[C@@H]1CN(Cc2cc(-c3ccc(F)c(C(F)F)c3)cnc2C(C)(F)F)C(=O)O1` [Example 139, (5R)-3-[[2-(1,1-Difluoroethyl)-5-[3-(difluoromethyl)-4-fluoro-phenyl]-3-pyridyl]methyl]-5-methyl-oxazolidin-2-one], for which the IC50 worked out at 134 nM.

In the case of `COc1ncc(-c2cccc(C)c2)cc1CN1CCOC1=O` [Example 105, 3-[[2-Methoxy-5-(m-tolyl)-3-pyridyl]methyl]oxazolidin-2-one], the IC50 was found to be 434 nM.

With `CC1CN(Cc2cncc(-c3ccc(F)c(OC(F)F)c3)c2)C(=O)O1` (single isomer, unassigned) [Example 7, (S*)-3-[[5-[3-(Difluoromethoxy)-4-fluoro-phenyl]-3-pyridyl]methyl]-5-methyl-oxazolidin-2-one], the IC50 amounted to 17 nM.

With `Cc1cc(-c2cnc(C)c(CN3CCCOC3=O)c2)ccc1F` [Example 66, 3-[[5-(4-Fluoro-3-methyl-phenyl)-2-methyl-3-pyridyl]methyl]-1,3-oxazinan-2-one], the IC50 was 23 nM.

As for `O=C1OCCCN1Cc1cc(-c2ccc(Cl)c(OC(F)F)c2)cnc1C(F)F` [Example 129, 3-[[5-[4-Chloro-3-(difluoromethoxy)phenyl]-2-(difluoromethyl)-3-pyridyl]methyl]-1,3-oxazinan-2-one], the IC50 is 59 nM.

Take `Cc1ncc(-c2ccc(F)c(OC(F)F)c2)cc1CN1C(=O)OCC1C` (racemic) [Example 81, (R/S)-3-[[5-[3-(Difluoromethoxy)-4-fluoro-phenyl]-2-methyl-3-pyridyl]methyl]-4-methyl-oxazolidin-2-one]: the IC50 was found to be 79 nM.

On to `Cc1ncc(-c2ccc(F)c(C(F)F)c2)cc1CN1CC2(CCC2)OC1=O` [Example 91, 6-[[5-[3-(Difluoromethyl)-4-fluoro-phenyl]-2-methyl-3-pyridyl]methyl]-8-oxa-6-azaspiro[3.4]octan-7-one], for which the IC50 worked out at 84 nM.

For `Cc1ncc(-c2ccc(F)c(C)c2F)cc1CN1CCOC1=O` [Example 77, 3-[[5-(2,4-Difluoro-3-methyl-phenyl)-2-methyl-3-pyridyl]methyl]oxazolidin-2-one], the IC50 was determined as 13 nM.

As to `Cc1ncc(-c2ccc(F)c(C(F)F)c2)cc1CN1CC(C)(C)OC1=O` [Example 93, 3-[[5-[3-(Difluoromethyl)-4-fluoro-phenyl]-2-methyl-3-pyridyl]methyl]-5,5-dimethyl-oxazolidin-2-one], the IC50 worked out at 526 nM.

The values are drawn from patent publication US11447503B2, “Pyridine carbamates and their use as GLUN2B receptor modulators” (JANSSEN PHARMACEUTICA NV, priority 2019, dated 2022).
